Test results from PubChem BioAssay (NCI).
Where “and” joins values, the source holds several entries; their conditions need not be identical. Equal entries are not always repeated.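 Five concentrations, 48 hours, 96-well plates. At the GI50, growth is halved. The concentration for full growth arrest is given as TGI.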

What was measured:
Experiment in all cases: inhibition of tumour cell growth, NCI panel, 48 h
[1] = tested on: A549 NSCLC
[2] = tested on: OVCAR-4 ovarian
[3] = tested on: RPMI-8226 leukemia
[4] = tested on: SNB-19 CNS
[5] = tested on: SNB-75 CNS
[6] = tested on: TK-10 renal
[7] = tested on: UACC-257 melanoma
[8] = tested on: HOP-92 NSCLC
[9] = tested on: OVCAR-3 ovarian
[10] = tested on: OVCAR-5 ovarian

CCOC(=O)NC/C=C/CO
TGI [1]: > 100 µM | TGI [2]: > 100 µM | TGI [3]: > 100 µM | TGI [4]: > 100 µM | TGI [5]: > 100 µM | TGI [6]: > 100 µM | TGI [7]: > 100 µM

COc1cc(-c2nn(-c3cccc(NC(=O)c4cccc(C(F)(F)F)c4)c3)cc2-c2ccncc2)ccc1Cl
GI50 [1]: 1.87 µM | TGI [1]: > 50 µM | GI50 [8]: 0.554 µM | TGI [8]: 3.12 µM | GI50 [9]: 1.2 µM | TGI [9]: 2.98 µM | GI50 [2]: 2.28 µM | TGI [2]: > 50 µM | GI50 [10]: 4.01 µM | TGI [10]: > 50 µM | GI50 [3]: 1.57 µM | TGI [3]: 26.6 µM | GI50 [4]: 2.46 µM | TGI [4]: > 50 µM | GI50 [6]: 3.24 µM | TGI [6]: > 50 µM | GI50 [7]: 27.9 µM | TGI [7]: > 50 µM

O=C(/C=C/c1ccc(OCC(=O)N2CCN(c3ccccc3)CC2)cc1)c1ccccc1
TGI [1]: > 100 µM | TGI [8]: > 100 µM | TGI [9]: > 100 µM | TGI [2]: > 100 µM | TGI [10]: > 90 µM | TGI [3]: > 27.2 µM | TGI [4]: > 82.9 µM | TGI [5]: > 78.9 µM | TGI [6]: > 79.4 µM | TGI [7]: > 100 µM

COC(=O)/C(=C/c1ccc(OC)cc1)c1cc(OC)c(OC)c(OC)c1
TGI [1]: > 100 µM | TGI [8]: > 55.9 µM | TGI [9]: 2.63 µM | TGI [2]: > 100 µM | TGI [10]: > 100 µM | TGI [3]: 69.5 µM | TGI [4]: 98 µM | TGI [5]: 5.77 µM | TGI [6]: > 100 µM | TGI [7]: > 84.3 µM

Cc1c2cc[n+](C)cc2c(C)c2c1[nH]c1ccc(Oc3ccccc3)cc12
TGI [1]: > 100 µM | TGI [8]: 7.37 µM and 6.77 µM | TGI [9]: > 37.6 µM and 31.7 µM | TGI [2]: 36.5 µM and > 68.7 µM | TGI [10]: > 42 µM and 29.9 µM | TGI [3]: 23.8 µM and 16.1 µM | GI50 [4]: 0.23 µM | TGI [4]: 0.887 µM and 4.09 µM | GI50 [5]: 0.549 µM | TGI [5]: 4.36 µM and 5.27 µM | GI50 [6]: 1.55 µM and 3.43 µM | TGI [6]: > 71.2 µM and 30.2 µM | TGI [7]: 6.96 µM and 8.42 µM

COc1cc2c(cc1OCCCN1CCN(CCCn3c4ccccc4c4ccccc43)CC1)N=C[C@@H]1CCCN1C2=O
GI50 [1]: 0.294 µM | TGI [1]: 1.28 µM | GI50 [8]: 0.0283 µM | TGI [8]: 0.173 µM | GI50 [9]: 0.0669 µM | TGI [9]: 1.16 µM | GI50 [2]: 0.0374 µM | TGI [2]: 0.357 µM | GI50 [10]: 0.0625 µM | TGI [10]: 0.648 µM | GI50 [3]: 0.0106 µM | TGI [3]: 0.0483 µM | GI50 [4]: 0.274 µM | TGI [4]: 1.17 µM | GI50 [5]: < 0.0395 µM | TGI [5]: 0.102 µM | GI50 [6]: 0.086 µM | TGI [6]: 1.07 µM | GI50 [7]: 0.209 µM | TGI [7]: 0.461 µM

COc1cccc(OC)c1/C=N\N1C(=O)c2ccccc2C1=O
TGI [1]: > 100 µM | TGI [8]: > 100 µM | TGI [9]: 44.1 µM | TGI [2]: > 100 µM | TGI [10]: > 100 µM | TGI [3]: > 100 µM | TGI [4]: > 100 µM | TGI [5]: 98.1 µM | TGI [6]: > 100 µM | TGI [7]: > 100 µM

O=C(Nc1cccc(C(F)(F)F)c1)Nc1ccc(OCc2nnc(-c3ccccc3)o2)c(F)c1
GI50 [1]: 6.02 µM | TGI [1]: 38.5 µM | GI50 [8]: 1.77 µM | TGI [8]: 5.81 µM | GI50 [9]: 4.23 µM | TGI [9]: 17 µM | GI50 [2]: 4 µM | TGI [2]: 30.1 µM | GI50 [10]: 18.9 µM | TGI [10]: > 100 µM | GI50 [3]: 1.67 µM | TGI [3]: 6.2 µM | GI50 [4]: 4.4 µM | TGI [4]: 35.5 µM | GI50 [5]: 0.645 µM | TGI [5]: 5.81 µM | GI50 [6]: 20.5 µM | TGI [6]: 68.9 µM | GI50 [7]: 6.38 µM | TGI [7]: 37.9 µM

CC(C)C12CCC3(CCC4C(C)(C(=O)O)CCCC4(C)C3C1)C(CN)C2 (centres undefined)
TGI [1]: > 100 µM | TGI [8]: > 100 µM | TGI [9]: > 100 µM | TGI [2]: > 100 µM | TGI [10]: 90.4 µM | TGI [3]: 42 µM | TGI [4]: > 100 µM | TGI [5]: > 100 µM | TGI [6]: > 100 µM | TGI [7]: > 100 µM

O=C(/C=C/N1CCN(c2cccc(Cl)c2)CC1)c1ccc(Cl)cc1
GI50 [1]: 31.9 µM | TGI [1]: > 100 µM | GI50 [8]: 15.1 µM | TGI [8]: 57.7 µM | GI50 [9]: 24.1 µM | TGI [9]: 73.7 µM | GI50 [2]: > 100 µM | TGI [2]: > 100 µM | GI50 [10]: 49.7 µM | TGI [10]: > 100 µM | GI50 [3]: 18.3 µM | TGI [3]: 50.7 µM | GI50 [4]: 64.9 µM | TGI [4]: > 100 µM | GI50 [6]: 30.8 µM | TGI [6]: > 100 µM | GI50 [7]: 23.8 µM | TGI [7]: 63.5 µM

CN1C/C(=C\c2ccco2)c2nc(N)nc(-c3ccco3)c2C1
TGI [1]: > 100 µM | TGI [9]: > 100 µM | TGI [10]: > 100 µM | TGI [3]: > 100 µM | TGI [4]: > 100 µM | TGI [5]: > 100 µM | TGI [6]: > 100 µM | TGI [7]: > 100 µM

O=C1NC2(CCCCC2)C2=C1CCCCC2
TGI [1]: > 100 µM | TGI [8]: > 100 µM | TGI [9]: > 100 µM | TGI [2]: > 100 µM | TGI [10]: > 100 µM | TGI [4]: > 100 µM | TGI [5]: > 100 µM | TGI [6]: > 100 µM | TGI [7]: > 100 µM

COc1cc(COC(=O)NC(Cc2cccs2)C(=O)O)c([N+](=O)[O-])cc1OC (centres undefined)
TGI [1]: > 100 µM | TGI [8]: > 100 µM | TGI [9]: > 100 µM | TGI [10]: > 100 µM | TGI [3]: > 100 µM | TGI [4]: > 100 µM | TGI [5]: > 100 µM | TGI [6]: > 100 µM | TGI [7]: > 100 µM

COC(=O)C1=C(C)N(NC(=O)Nc2ccccc2)C2(N)N(NC(=O)Nc3ccccc3)C(C)=C(C(=O)OC)C12C(=O)OC (centres undefined)
TGI [1]: > 100 µM | TGI [8]: > 100 µM | TGI [9]: > 100 µM | TGI [2]: > 100 µM | TGI [10]: > 100 µM | TGI [3]: 78.5 µM | TGI [5]: > 100 µM | TGI [6]: > 100 µM | TGI [7]: > 100 µM

CCCCCCCCCCCCCCCC(=O)NCC(OCC)OCC
TGI [1]: > 100 µM | TGI [8]: > 100 µM | TGI [9]: > 100 µM | TGI [2]: > 100 µM | TGI [10]: > 100 µM | TGI [4]: > 100 µM | TGI [5]: > 100 µM | TGI [6]: > 100 µM | TGI [7]: > 100 µM

O=C1COc2cc3c(cc2N1)SCC(=O)N3
TGI [1]: > 100 µM | TGI [8]: > 100 µM | TGI [9]: > 100 µM | TGI [2]: > 100 µM | TGI [3]: > 100 µM | TGI [4]: > 100 µM | TGI [5]: > 100 µM | TGI [6]: > 100 µM | TGI [7]: > 100 µM

C=CCCC1(CCP(=O)(c2ccccc2)c2ccccc2)OCCO1
TGI [1]: > 100 µM | TGI [9]: > 100 µM | TGI [10]: > 100 µM | TGI [3]: > 100 µM | TGI [4]: > 100 µM | TGI [5]: > 100 µM | TGI [6]: > 100 µM | TGI [7]: > 100 µM

Cc1cc(C2(c3cc(C)c(O)c4ncccc34)OC(=O)c3ccccc32)c2cccnc2c1O
TGI [1]: 14 µM | TGI [2]: > 100 µM | TGI [10]: > 100 µM | TGI [3]: > 100 µM | GI50 [4]: 0.0365 µM | TGI [5]: 6.82 µM and 8.1 µM | GI50 [7]: 0.496 µM | TGI [7]: > 100 µM

CC1=C2[C@@H](c3ccccc3)C3C=CC2(C=C3C(F)(F)F)N(C(=O)NC2CCCCC2)C1=O (some centres undefined)
TGI [1]: > 100 µM | TGI [8]: > 100 µM | TGI [9]: > 100 µM | TGI [2]: > 100 µM | TGI [10]: > 100 µM | TGI [4]: > 100 µM | TGI [5]: > 100 µM | TGI [6]: > 100 µM | TGI [7]: > 100 µM
